Here are results for five substances from patent US9067974B2, “Polymyxin derivatives and uses thereof” (priority 2006, dated 2015).

Assay [1] has as its system Acinetobacter baumannii ATCC 19606. Nature of the assay: Well diffusion growth inhibition on LB agar plates (direct antibacterial activity). The assay is classed as cell-based. The settings on record: A. baumannii ATCC 19606. The procedure:
(§1) From an overnight-grown culture of IH3080 on LB agar, a suspension of approx. 10^8 cells/ml was prepared in 0.9% NaCl. Aliquots of this suspension were then pipetted on the agar plates and the plates were gently shaken to spread the suspension evenly on the entire surface of the plate. Thereafter, the unabsorbed part of the suspension was removed by using a Pasteur pipette. After the surface had dried, small wells (diameter, 2 mm) were drilled on the plates (five wells per plate) by using a sterile sharp-edged narrow metal tube, single-use pipette tip, and vacuum suction. Samples (4 μl and 10 μl) of the peptide solution in 0.9% NaCl (at concentrations of 1 μg/ml and 0.1 μg/ml) were then pipetted to the wells and the sample fluids were allowed to absorb. Controls included 0.9% NaCl solution without the compound to be tested. The plates were then incubated for 18 h at 37° C. whereafter the diameters of growth inhibition zones around each well were measured; the diameter of the well itself was not reduced. Finally, the diameters were converted to surface areas of growth inhibition (in square mm).
(§2) Direct antibacterial activity of twelve NAB compounds against Acinetobacter baumannii ATCC 19606 and Pseudomonas aeruginosa ATCC 27853 was tested by using the susceptibility determination method described in Example 2. Five compounds (NAB7062, NAB734, NAB737, NAB739, and NAB740) had notable activity against A. baumannii. […] The antibacterial activity of NAB739 and NAB740 were as strong as or even stronger than that of polymyxin B.
For orientation: A growth-free zone around the sample is the usual read-out of agar diffusion tests.

Assay [2] relates to Pseudomonas aeruginosa ATCC 27853. Described as above. The assay is classed as cell-based. The note with it: Ps. aeruginosa ATCC 27853. How it is done:
as §1, §2

In another assay the test system is E. coli IH3080. Put plainly: Sensitization to rifampin: well diffusion growth inhibition on LB plates containing rifampin. It counts as cell-based, Escherichia coli. The note with it: 4 μg of compound. How it is done: as §1, with “Samples (4 μl and 10 μl) of the peptide solution in 0.9% NaCl (at concentrations of 1 μg/ml and 0.1 μg/ml) were then pipetted to the wells and the sample fluids were allowed to absorb.” left out

In a further assay the test system is A. baumannii ATCC 19606. The assay is described as above. The settings on record: 4 μg of compound. It counts as cell-based, Acinetobacter baumannii.
The subject of the next assay is E. coli IH3080 (K1:O18). Nature of the assay: Well diffusion growth inhibition on LB agar plates (direct antibacterial activity). It counts as cell-based, Escherichia coli. The procedure:
Peptides synthesized in Example 1, all carrying at least two (2) but not more than three (3) positive charges, were studied for their ability to inhibit the growth of E. coli. This was tested employing LB agar (LB Agar Lennox, Difco, BD, Sparks, Md., U.S.A) plates. The indicator organism E. coli IH3080 (K1:O18) was an encapsulated strain originally isolated from a neonate suffering from meningitis (Vaara et al. 1984) and obtained from National Public Health Institute, Helsinki, Finland.
as §1, with “Samples (4 μl and 10 μl) of the peptide solution in 0.9% NaCl (at concentrations of 1 μg/ml and 0.1 μg/ml) were then pipetted to the wells and the sample fluids were allowed to absorb.” left out

The test system of assay [3] is Ps. aeruginosa ATCC 27853. Nature of the assay: Sensitization to rifampin: well diffusion growth inhibition on LB plates containing rifampin. It counts as cell-based, Pseudomonas aeruginosa. The settings on record: 4 μg of compound.

Consider “OA-Thr-DAla-cy[Dab-Dab-DPhe-Thr-Dab-Dab-Thr-] [NAB 738]”, for which the “Antibacterial activity (growth inhibition area around a well)” value in assay [1] (4 μg per well) was 0 square millimeters; in assay [1] (10 μg per well) it was 0 square millimeters; in assay [2] (4 μg per well), 0 square millimeters; in assay [2] (10 μg per well), 0 square millimeters; in the assay on E. coli IH3080 (K1:O18) (4 μg of compound per well) it was 0 square millimeters; with E. coli IH3080 (K1:O18) (10 μg of compound per well) it was 64 square millimeters. Further, the “Antibacterial activity in the presence of rifampin (growth inhibition area around a well)” value in the assay on E. coli IH3080 (rifampin 0 μg/ml) is 0 square millimeters; with E. coli IH3080 (rifampin 0.1 μg/ml), 133 square millimeters; in the assay with E. coli IH3080 (rifampin 1.0 μg/ml) it was 177 square millimeters; in the assay with A. baumannii ATCC 19606 (rifampin 0 μg/ml), 0 square millimeters; in the assay with A. baumannii ATCC 19606 (rifampin 0.1 μg/ml) it was 95 square millimeters; in the assay with A. baumannii ATCC 19606 (rifampin 0.3 μg/ml), 154 square millimeters. For the same substance, the “Antibacterial activity in the presence of rifampin (growth inhibition area around a well)” value was 0 square millimeters in assay [3] (rifampin 0 μg/ml), 13 square millimeters in assay [3] (rifampin 0.1 μg/ml) and 13 square millimeters in assay [3] (rifampin 0.3 μg/ml).
Consider “OA-Thr-Abu-cy[Dab-Dab-DPhe-Leu-Dab-Dab-Leu-] [NAB 719]”, for which the “Antibacterial activity (growth inhibition area around a well)” value in assay [1] (4 μg per well) is given as 0 square millimeters; in assay [1] (10 μg per well), 0 square millimeters; in assay [2] (4 μg per well), 0 square millimeters; in assay [2] (10 μg per well) it was 0 square millimeters; in the assay on E. coli IH3080 (K1:O18) (4 μg of compound per well), 7 square millimeters; with E. coli IH3080 (K1:O18) (10 μg of compound per well) it was 50 square millimeters. Besides, the “Antibacterial activity in the presence of rifampin (growth inhibition area around a well)” value in the assay on E. coli IH3080 (rifampin 0 μg/ml) amounted to 7 square millimeters; in the assay with E. coli IH3080 (rifampin 0.1 μg/ml), 79 square millimeters; in the assay on E. coli IH3080 (rifampin 1.0 μg/ml), 95 square millimeters; with A. baumannii ATCC 19606 (rifampin 0 μg/ml), 0 square millimeters; in the assay on A. baumannii ATCC 19606 (rifampin 0.1 μg/ml), 154 square millimeters; with A. baumannii ATCC 19606 (rifampin 0.3 μg/ml) it was 133 square millimeters. Besides, the “Antibacterial activity in the presence of rifampin (growth inhibition area around a well)” value came to 0 square millimeters in assay [3] (rifampin 0 μg/ml), 0 square millimeters in assay [3] (rifampin 0.1 μg/ml) and 7 square millimeters in assay [3] (rifampin 0.3 μg/ml).
Turning to “DA-Thr-DSer-cy[Dab-Dab-DPhe-Leu-Dab-Dab-Thr-] [NAB 740]”, the “Antibacterial activity (growth inhibition area around a well)” value in assay [1] (4 μg per well) is on record as 133 square millimeters; in assay [1] (10 μg per well), 201 square millimeters; in assay [2] (4 μg per well) it was 64 square millimeters; in assay [2] (10 μg per well), 133 square millimeters; in the assay on E. coli IH3080 (K1:O18) (4 μg of compound per well) it was 95 square millimeters; in the assay on E. coli IH3080 (K1:O18) (10 μg of compound per well), 133 square millimeters. Also, the “Antibacterial activity in the presence of rifampin (growth inhibition area around a well)” value in the assay with E. coli IH3080 (rifampin 0 μg/ml) is recorded as 95 square millimeters; in the assay on E. coli IH3080 (rifampin 0.1 μg/ml) it was 95 square millimeters; in the assay with E. coli IH3080 (rifampin 1.0 μg/ml) it was 95 square millimeters; in the assay with A. baumannii ATCC 19606 (rifampin 0 μg/ml), 133 square millimeters; in the assay on A. baumannii ATCC 19606 (rifampin 0.1 μg/ml), 154 square millimeters; in the assay with A. baumannii ATCC 19606 (rifampin 0.3 μg/ml), 154 square millimeters. For the same substance, the “Antibacterial activity in the presence of rifampin (growth inhibition area around a well)” value in assay [3] (rifampin 0 μg/ml), in assay [3] (rifampin 0.1 μg/ml) and in assay [3] (rifampin 0.3 μg/ml) was 64 square millimeters in each case.
Turning to “DA-Thr-Abu-cy[Dab-Dab-DPhe-Leu-Dab-Dab-Thr-] [NAB 7062]”, the “Antibacterial activity (growth inhibition area around a well)” value was found to be 13 square millimeters in assay [1] (4 μg per well); 38 square millimeters in assay [1] (10 μg per well); 0 square millimeters in assay [2] (4 μg per well); 0 square millimeters in assay [2] (10 μg per well); 50 square millimeters in the assay with E. coli IH3080 (K1:O18) (4 μg of compound per well); 99 square millimeters in the assay on E. coli IH3080 (K1:O18) (10 μg of compound per well). Also, the “Antibacterial activity in the presence of rifampin (growth inhibition area around a well)” value with E. coli IH3080 (rifampin 0 μg/ml) is 50 square millimeters; with E. coli IH3080 (rifampin 0.1 μg/ml) it was 104 square millimeters; in the assay with E. coli IH3080 (rifampin 1.0 μg/ml) it was 104 square millimeters; in the assay on A. baumannii ATCC 19606 (rifampin 0 μg/ml), 13 square millimeters; with A. baumannii ATCC 19606 (rifampin 0.1 μg/ml), 50 square millimeters; in the assay on A. baumannii ATCC 19606 (rifampin 0.3 μg/ml) it was 95 square millimeters. Also, the “Antibacterial activity in the presence of rifampin (growth inhibition area around a well)” value in assay [3] (rifampin 0 μg/ml) stood at 0 square millimeters; in assay [3] (rifampin 0.1 μg/ml) it was 0 square millimeters; in assay [3] (rifampin 0.3 μg/ml), 7 square millimeters.
Take “OA-Thr-DThr-cy[Dab-Dab-DPhe-Thr-Dab-Dab-Thr-] [NAB 737]”: the “Antibacterial activity (growth inhibition area around a well)” value in assay [1] (4 μg per well) is given as 38 square millimeters; in assay [1] (10 μg per well) it was 79 square millimeters; in assay [2] (4 μg per well), 0 square millimeters; in assay [2] (10 μg per well) it was 28 square millimeters; in the assay on E. coli IH3080 (K1:O18) (4 μg of compound per well), 133 square millimeters; in the assay with E. coli IH3080 (K1:O18) (10 μg of compound per well) it was 201 square millimeters. For the same substance, the “Antibacterial activity in the presence of rifampin (growth inhibition area around a well)” value in the assay with E. coli IH3080 (rifampin 0 μg/ml) is given as 133 square millimeters; with E. coli IH3080 (rifampin 0.1 μg/ml), 177 square millimeters; with E. coli IH3080 (rifampin 1.0 μg/ml), 201 square millimeters; with A. baumannii ATCC 19606 (rifampin 0 μg/ml) it was 38 square millimeters; with A. baumannii ATCC 19606 (rifampin 0.1 μg/ml), 201 square millimeters; with A. baumannii ATCC 19606 (rifampin 0.3 μg/ml), 283 square millimeters. Moreover, the “Antibacterial activity in the presence of rifampin (growth inhibition area around a well)” value in assay [3] (rifampin 0 μg/ml) was 0 square millimeters; in assay [3] (rifampin 0.1 μg/ml) it was 20 square millimeters; in assay [3] (rifampin 0.3 μg/ml), 20 square millimeters.
